{"source": "ChEMBL document CHEMBL5233282", "about": "“Design, synthesis and bioactivity evaluation of novel N-phenyl-substituted evodiamine derivatives as potent anti-tumor agents” (Bioorg Med Chem, 2021)", "key": {"HT-29 [1]": {"tested_on": "HT-29", "experiment": "Induction of apoptosis in human HT-29 cells assessed as late apoptotic cells at 0.9 uM incubated for 24 hrs by Annexin-V/PI staining based flow cytometric analysis (reference value: 4.50%)", "type": "functional"}, "HGC-27 [2]": {"tested_on": "HGC-27", "experiment": "Induction of apoptosis in human HGC-27 cells assessed as late apoptotic cells at 2.7 uM incubated for 24 hrs by Annexin-V/PI staining based flow cytometric analysis (reference value: 9.22%)", "type": "functional"}, "HGC-27 [3]": {"tested_on": "HGC-27", "experiment": "Cell cycle arrest in human HGC-27 cells assessed as accumulation of cells at G2/M phase at 0.1 to 0.9 microM incubated for 24 hrs by flow cytometric analysis relative to control", "type": "functional", "settings": "dose 0.1-0.9 µM"}, "HT-29 [4]": {"tested_on": "HT-29", "experiment": "Induction of apoptosis in human HT-29 cells assessed as late apoptotic cells at 0.1 uM incubated for 24 hrs by Annexin-V/PI staining based flow cytometric analysis (reference value: 4.50%)", "type": "functional"}, "MCF7": {"tested_on": "MCF7", "experiment": "Antiproliferative activity against human MCF7 cells assessed as inhibition of cell growth incubated for 72 hrs by MTT assay", "type": "functional, cell-based", "settings": "MCF7, 72 h"}, "HT-29 [5]": {"tested_on": "HT-29", "experiment": "Induction of apoptosis in human HT-29 cells assessed as necrotic cells at 0.1 uM incubated for 24 hrs by Annexin-V/PI staining based flow cytometric analysis (reference value: 0.01%)", "type": "functional"}, "HGC-27 [6]": {"tested_on": "HGC-27", "experiment": "Induction of apoptosis in human HGC-27 cells assessed as viable cells at 0.9 uM incubated for 24 hrs by Annexin-V/PI staining based flow cytometric analysis (reference value: 90.54%)", "type": "functional", "settings": "read-out: Activity"}, "HT-29 [7]": {"tested_on": "HT-29", "experiment": "Induction of apoptosis in human HT-29 cells assessed as appearance of light blue nuclei at 0.1 to 0.9 uM incubated for 24 hrs by Hoechst 33342 staining based microscopic analysis", "type": "functional, cell-based", "settings": "dose 0.1-0.9 µM"}, "HT-29 [8]": {"tested_on": "HT-29", "experiment": "Inhibition of colony formation in human HT-29 cells incubated for 7 days by crystal purple staining based analysis", "type": "functional, cell-based", "settings": "dose 0.03-0.3 µM, time 7.0 day"}, "[9]": {"biological_target": "T1, DNA topoisomerase 1 (Homo sapiens) (UniProt P11387)", "T1 sequence (whole entry)": "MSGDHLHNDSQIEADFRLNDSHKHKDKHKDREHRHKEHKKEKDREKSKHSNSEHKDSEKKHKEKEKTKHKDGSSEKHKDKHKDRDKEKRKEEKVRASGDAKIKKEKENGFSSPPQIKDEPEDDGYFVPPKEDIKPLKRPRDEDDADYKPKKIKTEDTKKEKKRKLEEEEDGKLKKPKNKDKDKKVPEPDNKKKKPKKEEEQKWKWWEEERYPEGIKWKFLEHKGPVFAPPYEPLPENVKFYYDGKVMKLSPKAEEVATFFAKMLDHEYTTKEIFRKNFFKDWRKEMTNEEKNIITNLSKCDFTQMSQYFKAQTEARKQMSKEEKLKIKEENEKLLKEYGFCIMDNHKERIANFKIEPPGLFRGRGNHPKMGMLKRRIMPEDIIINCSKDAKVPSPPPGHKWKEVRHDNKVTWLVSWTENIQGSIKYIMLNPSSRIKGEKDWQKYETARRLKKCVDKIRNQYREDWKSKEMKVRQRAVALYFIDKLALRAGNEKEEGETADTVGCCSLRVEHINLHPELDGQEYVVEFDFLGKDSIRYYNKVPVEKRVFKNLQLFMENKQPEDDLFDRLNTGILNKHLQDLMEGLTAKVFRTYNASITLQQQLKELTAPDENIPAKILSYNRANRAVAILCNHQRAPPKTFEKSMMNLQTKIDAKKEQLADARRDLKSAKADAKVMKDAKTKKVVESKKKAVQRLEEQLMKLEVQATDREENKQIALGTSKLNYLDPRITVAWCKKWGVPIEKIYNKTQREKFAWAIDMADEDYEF", "experiment": "Inhibition of topoisomerase 1 (unknown origin) at 100 uM incubated for 30 mins by gel electrophoresis analysis relative to control"}, "HGC-27 [10]": {"tested_on": "HGC-27", "experiment": "Inhibition of cell migration in human HGC-27 cells at 0.1 to 0.9 uM incubated for 24 hrs by wound healing assay", "type": "functional, cell-based", "settings": "dose 0.1-0.9 µM"}, "HGC-27 [11]": {"tested_on": "HGC-27", "experiment": "Antiproliferative activity against human HGC-27 cells assessed as inhibition of cell growth incubated for 24 hrs by EdU incorporation based assay", "type": "functional", "settings": "dose 0.15-0.6 µM"}, "A549": {"tested_on": "A549", "experiment": "Antiproliferative activity against human A549 cells assessed as inhibition of cell growth incubated for 72 hrs by MTT assay", "type": "functional, cell-based", "settings": "A549, 72 h"}, "HT-29 [12]": {"tested_on": "HT-29", "experiment": "Induction of apoptosis in human HT-29 cells assessed as viable cells at 0.3 uM incubated for 24 hrs by Annexin-V/PI staining based flow cytometric analysis (reference value: 92.90%)", "type": "functional", "settings": "read-out: Activity"}, "HGC-27 [13]": {"tested_on": "HGC-27", "experiment": "Inhibition of PI3K/AKT signalling pathway in human HGC-27 cells assessed as decrease in phosphorylated PI3K level at 0.1 to 0.9 uM incubated for 24 hrs by Western blot analysis", "type": "cell-based", "settings": "dose 0.1-0.9 µM"}, "HGC-27 [14]": {"tested_on": "HGC-27", "experiment": "Inhibition of cell invasion in human HGC-27 cells at 0.15 to 0.6 uM incubated for 24 hrs by transwell assay", "type": "functional, cell-based", "settings": "dose 0.15-0.6 µM"}, "HGC-27 [15]": {"tested_on": "HGC-27", "experiment": "Induction of apoptosis in human HGC-27 cells assessed as early apoptotic cells at 0.3 uM incubated for 24 hrs by Annexin-V/PI staining based flow cytometric analysis (reference value: 0.09%)", "type": "functional"}, "HT-29 [16]": {"tested_on": "HT-29", "experiment": "Induction of apoptosis in human HT-29 cells assessed as viable cells at 0.1 uM incubated for 24 hrs by Annexin-V/PI staining based flow cytometric analysis (reference value: 92.90%)", "type": "functional", "settings": "read-out: Activity"}, "HT-29 [17]": {"tested_on": "HT-29", "experiment": "Induction of apoptosis in human HT-29 cells assessed as early apoptotic cells at 0.9 uM incubated for 24 hrs by Annexin-V/PI staining based flow cytometric analysis (reference value: 2.59%)", "type": "functional"}, "HT-29 [18]": {"tested_on": "HT-29", "experiment": "Induction of apoptosis in human HT-29 cells assessed as viable cells at 0.9 uM incubated for 24 hrs by Annexin-V/PI staining based flow cytometric analysis (reference value: 92.90%)", "type": "functional", "settings": "read-out: Activity"}, "HGC-27 [19]": {"tested_on": "HGC-27", "experiment": "Induction of apoptosis in human HGC-27 cells assessed as necrotic cells at 0.3 uM incubated for 24 hrs by Annexin-V/PI staining based flow cytometric analysis (reference value: 0.15%)", "type": "functional"}, "HT-29 [20]": {"tested_on": "HT-29", "experiment": "Induction of apoptosis in human HT-29 cells assessed as early apoptotic cells at 0.1 uM incubated for 24 hrs by Annexin-V/PI staining based flow cytometric analysis (reference value: 2.59%)", "type": "functional"}, "[21]": {"biological_target": "T1, DNA topoisomerase 1 (Homo sapiens)", "experiment": "Inhibition of topoisomerase 1 (unknown origin) at 200 uM incubated for 30 mins by gel electrophoresis analysis relative to control"}, "HGC-27 [22]": {"tested_on": "HGC-27", "experiment": "Antiproliferative activity against human HGC-27 cells assessed as inhibition of cell growth incubated for 72 hrs by MTT assay", "type": "functional, cell-based", "settings": "HGC-27, 72 h"}, "HGC-27 [23]": {"tested_on": "HGC-27", "experiment": "Induction of apoptosis in human HGC-27 cells assessed as appearance of light blue nuclei at 0.1 to 0.9 uM incubated for 24 hrs by Hoechst 33342 staining based microscopic analysis", "type": "functional, cell-based", "settings": "dose 0.1-0.9 µM"}, "HGC-27 [24]": {"tested_on": "HGC-27", "experiment": "Induction of apoptosis in human HGC-27 cells assessed as early apoptotic cells at 2.7 uM incubated for 24 hrs by Annexin-V/PI staining based flow cytometric analysis (reference value: 0.09%)", "type": "functional"}, "HT-29 [25]": {"tested_on": "HT-29", "experiment": "Antiproliferative activity against human HT-29 cells assessed as inhibition of cell growth incubated for 24 hrs by EdU incorporation based assay", "type": "functional", "settings": "dose 0.03-0.3 µM"}, "HGC-27 [26]": {"tested_on": "HGC-27", "experiment": "Inhibition of PI3K/AKT signalling pathway in human HGC-27 cells assessed as decrease in phosphorylated AKT level at 0.1 to 0.9 uM incubated for 24 hrs by Western blot analysis", "type": "cell-based", "settings": "dose 0.1-0.9 µM"}}, "note": "Activity calls are given as the source filed them. The rule behind the calls is not given here.", "data": [{"smiles": "O=C1c2ccccc2N(c2cccc(F)c2)C2c3[nH]c4ccccc4c3CCN12", "note": "(stereo not drawn)", "values": [{"measurement": "Activity", "setting": "HT-29 [1]", "result": 7.42, "unit": "%"}, {"measurement": "Activity", "setting": "HGC-27 [2]", "result": 35.8, "unit": "%"}, {"measurement": "Activity", "setting": "HGC-27 [3]", "result": 20.5, "unit": "%"}, {"measurement": "Activity", "setting": "HT-29 [4]", "result": 5.37, "unit": "%"}, {"measurement": "IC50", "setting": "MCF7", "result": 9.11, "unit": "µM"}, {"measurement": "Activity", "setting": "HT-29 [5]", "result": 0.02, "unit": "%"}, {"measurement": "viability at 0.9 µM", "setting": "HGC-27 [6]", "result": 59.9, "unit": "%"}, {"measurement": "Activity", "setting": "HT-29 [7]", "result": "Active"}, {"measurement": "inhibition", "setting": "HT-29 [8]", "result": "Dose-Dependent Effect"}, {"measurement": "inhibition", "setting": "[9]", "result": "inactive"}, {"measurement": "inhibition", "setting": "HGC-27 [10]", "result": "Active"}, {"measurement": "Activity", "setting": "HGC-27 [11]", "result": "Dose-Dependent Effect"}, {"measurement": "IC50", "setting": "A549", "result": 7.87, "unit": "µM"}, {"measurement": "viability at 0.3 µM", "setting": "HT-29 [12]", "result": 81.3, "unit": "%"}, {"measurement": "inhibition", "setting": "HGC-27 [13]", "result": "Active"}, {"measurement": "inhibition", "setting": "HGC-27 [14]", "result": "Active"}, {"measurement": "Activity", "setting": "HGC-27 [15]", "result": 1.15, "unit": "%"}, {"measurement": "viability at 0.1 µM", "setting": "HT-29 [16]", "result": 90.4, "unit": "%"}, {"measurement": "Activity", "setting": "HT-29 [17]", "result": 38.66, "unit": "%"}, {"measurement": "viability at 0.9 µM", "setting": "HT-29 [18]", "result": 53.7, "unit": "%"}, {"measurement": "Activity", "setting": "HGC-27 [19]", "result": 2.3, "unit": "%"}, {"measurement": "Activity", "setting": "HT-29 [20]", "result": 4.23, "unit": "%"}, {"measurement": "inhibition", "setting": "[21]", "result": 11.6, "unit": "%"}, {"measurement": "IC50", "setting": "HGC-27 [22]", "result": 0.37, "unit": "µM"}, {"measurement": "Activity", "setting": "HGC-27 [23]", "result": "Active"}, {"measurement": "Activity", "setting": "HGC-27 [24]", "result": 0.88, "unit": "%"}, {"measurement": "Activity", "setting": "HT-29 [25]", "result": "Dose-Dependent Effect"}, {"measurement": "inhibition", "setting": "HGC-27 [26]", "result": "Active"}]}]}
